The text below walks through data of ChEMBL document CHEMBL1140252, “Deoxyribosyl analogues of methionyl and isoleucyl sulfamate adenylates as inhibitors of methionyl-tRNA and isoleucyl-tRNA synthetases” (Bioorg Med Chem Lett, 2005).

Each structure is given as a SMILES string.

Chain of Methionine--tRNA ligase (P00959 whole entry): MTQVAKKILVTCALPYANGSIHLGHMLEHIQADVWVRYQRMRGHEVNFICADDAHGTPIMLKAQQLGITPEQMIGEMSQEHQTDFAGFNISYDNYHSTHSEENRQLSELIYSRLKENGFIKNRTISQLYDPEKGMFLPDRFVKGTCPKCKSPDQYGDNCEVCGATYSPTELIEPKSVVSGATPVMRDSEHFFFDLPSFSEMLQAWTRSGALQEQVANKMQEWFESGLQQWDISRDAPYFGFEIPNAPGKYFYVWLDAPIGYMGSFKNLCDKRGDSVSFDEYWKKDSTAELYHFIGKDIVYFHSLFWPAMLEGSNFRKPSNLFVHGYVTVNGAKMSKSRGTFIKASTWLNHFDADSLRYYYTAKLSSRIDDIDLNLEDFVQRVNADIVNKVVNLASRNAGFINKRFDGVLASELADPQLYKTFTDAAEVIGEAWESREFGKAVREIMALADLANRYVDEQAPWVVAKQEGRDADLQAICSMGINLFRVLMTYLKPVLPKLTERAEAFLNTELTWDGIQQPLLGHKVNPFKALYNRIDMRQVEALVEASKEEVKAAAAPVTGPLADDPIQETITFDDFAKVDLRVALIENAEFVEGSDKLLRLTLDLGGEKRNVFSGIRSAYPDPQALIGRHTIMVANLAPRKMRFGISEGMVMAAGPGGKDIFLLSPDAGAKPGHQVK

For one experiment, the target named is Isoleucine--tRNA ligase (Escherichia coli K-12, UniProt P00956). As to the kind of experiment: Inhibitory concentration against Escherichia coli Ile-tRNA synthetase.
Chain of Isoleucine--tRNA ligase (P00956 whole entry): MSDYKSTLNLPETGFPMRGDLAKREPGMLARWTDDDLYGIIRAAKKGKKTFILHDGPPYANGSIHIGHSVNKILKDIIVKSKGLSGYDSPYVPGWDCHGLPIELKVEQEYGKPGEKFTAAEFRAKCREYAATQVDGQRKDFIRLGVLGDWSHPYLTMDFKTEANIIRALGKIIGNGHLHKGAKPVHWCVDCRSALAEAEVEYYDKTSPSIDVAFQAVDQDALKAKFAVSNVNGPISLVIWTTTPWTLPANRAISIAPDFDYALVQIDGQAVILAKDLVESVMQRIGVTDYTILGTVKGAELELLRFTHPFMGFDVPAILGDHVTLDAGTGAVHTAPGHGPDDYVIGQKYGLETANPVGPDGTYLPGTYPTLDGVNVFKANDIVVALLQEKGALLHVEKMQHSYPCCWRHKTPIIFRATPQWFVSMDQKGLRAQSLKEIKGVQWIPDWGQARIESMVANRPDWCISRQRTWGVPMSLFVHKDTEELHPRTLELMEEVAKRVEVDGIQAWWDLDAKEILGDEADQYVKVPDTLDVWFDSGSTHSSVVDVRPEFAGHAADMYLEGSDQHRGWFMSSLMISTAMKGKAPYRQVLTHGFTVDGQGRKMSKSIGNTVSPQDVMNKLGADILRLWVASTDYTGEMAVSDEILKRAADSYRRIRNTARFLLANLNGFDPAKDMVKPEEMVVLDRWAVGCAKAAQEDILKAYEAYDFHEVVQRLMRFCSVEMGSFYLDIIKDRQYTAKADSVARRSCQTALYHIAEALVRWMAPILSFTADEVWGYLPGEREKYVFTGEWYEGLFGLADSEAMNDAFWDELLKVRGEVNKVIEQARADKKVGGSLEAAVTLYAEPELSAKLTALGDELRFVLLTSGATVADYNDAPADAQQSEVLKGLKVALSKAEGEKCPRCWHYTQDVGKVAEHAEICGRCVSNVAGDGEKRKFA
As to `CC[C@H](C)[C@H](N)C(=O)NS(=O)(=O)OC[C@@H]1CC[C@H](n2cnc3c(N)ncnc32)O1`, inhibition was half-maximal at 6.4 µM (IC50).
For `CC[C@H](C)[C@H](N)C(=O)NS(=O)(=O)OC[C@H]1O[C@@H](n2cnc3c(N)ncnc32)[C@H](O)[C@@H]1O`, the IC50 came out at 0.265 µM.
Same read-out and setting: next, `CC[C@H](C)[C@H](N)C(=O)NS(=O)(=O)OC[C@@H]1C[C@@H](O)[C@H](n2cnc3c(N)ncnc32)O1`: 35 µM.
The same measure, in the same setting: next, `CC[C@H](C)[C@H](N)C(=O)NS(=O)(=O)O[C@H]1O[C@@H](n2cnc3c(N)ncnc32)C[C@@H]1O`: 280 µM.

Another experiment has as its target Methionine--tRNA ligase (Escherichia coli K-12, UniProt P00959). The experiment is described as follows: Inhibitory concentration against Escherichia coli Met-tRNA synthetase.
`CSCC[C@H](N)C(=O)NS(=O)(=O)O[C@@H]1CC[C@H](n2cnc3c(N)nnnc32)O1` showed an IC50 of 0.383 µM.
In turn, `CSCC[C@H](N)C(=O)NS(=O)(=O)OC[C@H]1O[C@@H](n2cnc3c(N)ncnc32)[C@H](O)[C@@H]1O` registered an IC50 of 0.083 µM.
Still for that read-out and setting: next, `CSCC[C@H](N)C(=O)NS(=O)(=O)OC[C@H]1O[C@@H](n2cnc3c(N)ncnc32)C[C@@H]1O`: 110 µM; `CSCC[C@H](N)C(=O)NS(=O)(=O)OC[C@@H]1C[C@@H](O)[C@H](n2cnc3c(N)ncnc32)O1`: 220 µM.
